# Measured values as given in ChEMBL document CHEMBL1201862, “PubChem BioAssay data set” (2004).
#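 Assay format: 96-well plates, 48-hour exposure. The concentration for 50% growth inhibition is given as GI50.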 Calls of active or inactive are those of the source. No stated cut-off is given here; in the data, active = GI50 up to about 1.1 µM and inactive = higher.
# How the values were obtained:
# Test in all cases: DTP human tumour cell line panel, 48 h
# [1] = system: MCF7
# [2] = system: M14
# [3] = system: SK-MEL-5
# [4] = system: CAKI-1
# [5] = system: HL-60
# [6] = system: SN12C
# [7] = system: ACHN
# [8] = system: UO-31
# [9] = system: SF-268
# [10] = system: SK-MEL-28
# [11] = system: COLO 205
# [12] = system: Malme-3M
# [13] = system: HCT-15
# [14] = system: SW-620
# [15] = system: HT-29
# [16] = system: SNB-19
# [17] = system: A498
# [18] = system: SK-MEL-2
# [19] = system: SR
Structure (SMILES),GI50 [1],GI50 [2],GI50 [3],GI50 [4],GI50 [5],GI50 [6],GI50 [7],GI50 [8],GI50 [9],GI50 [10],GI50 [11],GI50 [12],GI50 [13] [µM],GI50 [14],GI50 [15],GI50 [16],GI50 [17],GI50 [18],GI50 [19]
CCCCSC1=N/C(=C\c2ccco2)C(=O)N1,0.687 µM (active),53.8 µM (inactive),35.4 µM (inactive),74.5 µM (inactive),18.2 µM (inactive),99.1 µM (inactive),> 100 µM (inactive),54 µM (inactive),41.3 µM (inactive),42.5 µM (inactive),26.1 µM (inactive),29.2 µM (inactive),34.6,35.8 µM (inactive),47.6 µM (inactive),63.8 µM (inactive),24.2 µM (inactive),54.8 µM (inactive),–
N#CC(C#N)=C(N)/C(C#N)=C/c1ccc2ccccc2n1,30.7 µM (inactive),33.7 µM (inactive),23.8 µM (inactive),22.6 µM (inactive),–,30.1 µM (inactive),17.2 µM (inactive),15.5 µM (inactive),> 100 µM (inactive),18.6 µM (inactive),–,96.8 µM (inactive),28.8,> 10 µM (inactive),18.6 µM (inactive),24.3 µM (inactive),> 100 µM (inactive),35 µM (inactive),–
COc1ccccc1NC(=S)Nc1cc(C)cc(C)n1,> 100 µM (inactive),> 100 µM (inactive),> 100 µM (inactive),> 100 µM (inactive),> 100 µM (inactive),> 100 µM (inactive),> 100 µM (inactive),> 100 µM (inactive),> 100 µM (inactive),> 100 µM (inactive),> 100 µM (inactive),> 100 µM (inactive),> 100,> 100 µM (inactive),> 100 µM (inactive),> 100 µM (inactive),> 100 µM (inactive),> 100 µM (inactive),–
CCOC(=O)C(C)c1nc2cc(C(F)(F)F)ccc2[nH]c1=O (stereo not drawn),> 100 µM (inactive),> 100 µM (inactive),42.2 µM (inactive),> 100 µM (inactive),62.7 µM (inactive),> 100 µM (inactive),> 100 µM (inactive),> 100 µM (inactive),> 100 µM (inactive),> 100 µM (inactive),> 100 µM (inactive),> 100 µM (inactive),> 100,> 100 µM (inactive),> 100 µM (inactive),> 100 µM (inactive),64.3 µM (inactive),> 100 µM (inactive),–
O=[N+]([O-])c1ccc(CSc2nn(Cc3ccc([N+](=O)[O-])cc3)cc3ncnc2-3)cc1,27.9 µM (inactive),34.8 µM (inactive),32 µM (inactive),35.2 µM (inactive),21.5 µM (inactive),57.4 µM (inactive),27.5 µM (inactive),12.1 µM (inactive),–,22.1 µM (inactive),39.5 µM (inactive),27.4 µM (inactive),43.1,21.7 µM (inactive),29.6 µM (inactive),–,18.4 µM (inactive),19.7 µM (inactive),–
N#CCCN(C(=O)Nc1ccccc1)[C@H]1CCCC[C@@H]1N(C(=O)Nc1ccccc1)c1ccccc1,48.2 µM (inactive),64.7 µM (inactive),> 100 µM (inactive),> 100 µM (inactive),–,> 100 µM (inactive),> 100 µM (inactive),54.2 µM (inactive),–,> 100 µM (inactive),83 µM (inactive),> 100 µM (inactive),> 100,72.6 µM (inactive),43 µM (inactive),22.2 µM (inactive),–,> 100 µM (inactive),19.3 µM (inactive)
CCn1cnc2c(NC(C)=O)ncnc21,> 100 µM (inactive),> 100 µM (inactive),> 100 µM (inactive),> 100 µM (inactive),–,> 100 µM (inactive),> 100 µM (inactive),> 100 µM (inactive),–,> 100 µM (inactive),> 100 µM (inactive),> 100 µM (inactive),> 100,> 100 µM (inactive),> 100 µM (inactive),> 100 µM (inactive),–,> 100 µM (inactive),–
Nn1c(S)nnc1-c1ccccc1Nc1ccccc1-c1nnc(S)n1N,> 50 µM (inactive),> 50 µM (inactive),> 50 µM (inactive),–,> 50 µM (inactive),–,> 50 µM (inactive),> 50 µM (inactive),> 50 µM (inactive),> 50 µM (inactive),> 50 µM (inactive),> 50 µM (inactive),> 50,> 50 µM (inactive),> 50 µM (inactive),> 50 µM (inactive),–,> 50 µM (inactive),> 50 µM (inactive)
